The results in this text go back to patent publication US8008292B2, “Condensed benzamide compounds and inhibitors of vanilloid receptor subtype 1 (VR1) activity” (Japan Tobacco Inc., priority 2004, dated 2011).

The test has as its target T1, human VR1 (Homo sapiens, UniProt Q8NER1).
T1 construct: expressed in transfected cells
Description: Inhibition of Ca2+ entry in cells caused by proton, in rat glioma (C6BU1) cells stably expressing human VR1 (Fura 2 fluorescence). Type of test: cell-based. The note with it: inhibition of proton-induced Ca2+ entry. In a few lines: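 Fura 2-loaded C6BU1 cells in 20 mM MES buffer pH 6.8 with added Ca2+ were preincubated 10 min with compound (final 1 μM to 0.1 nM, 1% DMSO). Proton stimulation brought pH to 5.5. Fluorescence rise was measured, and IC50 was derived from % inhibition versus DMSO control.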

Each structure is given as a SMILES string. pIC50: −log10 of the molar value. Counter-ions that a name gives are not always drawn.

By pIC50 is commonly meant the IC50 on a negative log10 scale, so that one unit is a factor of ten. A low value points to a high IC50.

T1 sequence (Q8NER1 whole entry): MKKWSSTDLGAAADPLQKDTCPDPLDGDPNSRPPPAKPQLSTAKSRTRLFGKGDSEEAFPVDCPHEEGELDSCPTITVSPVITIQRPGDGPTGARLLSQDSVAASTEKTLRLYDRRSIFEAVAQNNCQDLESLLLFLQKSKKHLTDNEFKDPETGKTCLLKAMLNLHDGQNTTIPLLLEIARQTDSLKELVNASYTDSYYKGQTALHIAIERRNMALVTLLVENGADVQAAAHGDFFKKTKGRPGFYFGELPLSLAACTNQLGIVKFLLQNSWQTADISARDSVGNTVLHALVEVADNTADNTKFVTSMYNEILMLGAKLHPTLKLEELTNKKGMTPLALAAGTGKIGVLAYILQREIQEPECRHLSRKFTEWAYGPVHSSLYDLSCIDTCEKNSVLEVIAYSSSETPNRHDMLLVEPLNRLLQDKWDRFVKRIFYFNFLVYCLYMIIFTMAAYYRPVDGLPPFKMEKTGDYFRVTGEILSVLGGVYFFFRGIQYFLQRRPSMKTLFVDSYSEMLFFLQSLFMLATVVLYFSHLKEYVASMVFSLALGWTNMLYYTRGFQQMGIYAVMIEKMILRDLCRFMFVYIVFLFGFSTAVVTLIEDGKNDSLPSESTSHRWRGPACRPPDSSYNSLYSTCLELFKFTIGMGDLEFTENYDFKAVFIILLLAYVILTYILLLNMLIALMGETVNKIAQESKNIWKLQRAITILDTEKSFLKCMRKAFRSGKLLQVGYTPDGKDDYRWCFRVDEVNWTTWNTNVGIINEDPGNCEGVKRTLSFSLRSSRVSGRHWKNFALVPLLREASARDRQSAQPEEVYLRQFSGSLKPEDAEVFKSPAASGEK

In turn, `O=C(Nc1ccc(N2CCCCC2)c(F)c1)c1cccc2c1OC[C@H](CO)N2c1ncccc1Cl` [Example 4-10] had a pIC50 of over 7.00. The figure for `O=C(Nc1ccc(OC(F)(F)F)c(Cl)c1)c1cccc2c1OC[C@H](CO)N2c1ncccc1Cl` [Example 4-11] is over 7.00.

The compound `CN(C)c1ccc(NC(=O)c2cccc3c2OC[C@H](CO)N3c2ncccc2Cl)cc1F` [Example 4-12] had a pIC50 of over 7.00.

As for `Cc1ccc(NC(=O)c2cccc3c2OC[C@H](CO)N3c2ncccc2Cl)cc1F` [Example 4-13], the pIC50 was over 7.00. The figure for `CC(C)(C)[C@H]1CC[C@H](NC(=O)c2cccc3c2OC[C@H](CO)N3c2ncccc2Cl)CC1` [Example 4-14] is over 7.00; for `CC(C)(C)COc1ccc(NC(=O)c2cccc3c2OC[C@H](CO)N3c2ncccc2Cl)cc1` [Example 4-15] it is over 7.00. With `O=C(Nc1ccc(Cl)cc1)c1cccc2c1OC[C@H](CO)N2c1ncccc1Cl` [Example 4-16] the figure was over 7.00; with `CC(C)c1ccc(NC(=O)c2cccc3c2OC[C@H](CO)N3c2ncccc2Cl)cc1` [Example 4-17], over 7.00; with `O=C(Nc1ccc(F)c(C(F)(F)F)c1)c1cccc2c1OC[C@H](CO)N2c1ncccc1Cl` [Example 4-18], over 7.00. In the case of `O=C(Nc1ccc(Br)c(Cl)c1)c1cccc2c1OC[C@H](CO)N2c1ncccc1Cl` [Example 4-19], the negative-log IC50 (pIC50) is over 7.00. With `CN(C)c1ccc(NC(=O)c2cccc3c2OC[C@H](CO)N3c2ncccc2Cl)cc1C(F)(F)F` [Example 4-20] the figure was over 7.00; with `CC(C)Oc1ccc(NC(=O)c2cccc3c2OC[C@H](CO)N3c2ncccc2Cl)cc1C(F)(F)F` [Example 4-21], over 7.00.

As for `O=C(Nc1ccc(N2CCCCC2)c(C(F)(F)F)c1)c1cccc2c1OC[C@H](CO)N2c1ncccc1Cl` [Example 4-22], the pIC50 is over 7.00. On to `CCOc1ccc(NC(=O)c2cccc3c2OC[C@H](CO)N3c2ncccc2Cl)cc1F` [Example 4-23], for which the negative logarithm of the IC50 (pIC50) is over 7.00.

Compound `COc1ccc(NC(=O)c2cccc3c2OC[C@H](CO)N3c2ncccc2Cl)cc1C(F)(F)F` [Example 4-24] had a pIC50 of over 7.00. With `COc1cnc(N2c3cccc(C(=O)Nc4ccc(C(F)(F)F)cc4)c3OC[C@@H]2CO)c(Cl)c1` [Example 4-25] the figure was over 7.00; with `COc1cnc(N2c3cccc(C(=O)Nc4ccc(OC(F)(F)F)cc4)c3OC[C@@H]2CO)c(Cl)c1` [Example 4-26], over 7.00; with `Cc1ccc(N2c3cccc(C(=O)Nc4ccc(C(F)(F)F)nc4)c3OC[C@@H]2CO)nc1` [Example 4-27], over 7.00. The figure for `COc1ccc(NC(=O)c2cccc3c2OC[C@H](CO)N3c2ccc(C)cn2)cc1C(F)(F)F` [Example 4-28] is over 7.00; for `Cc1ccc(N2c3cccc(C(=O)Nc4ccc(N5CCOCC5)c(C(F)(F)F)c4)c3OC[C@@H]2CO)nc1` [Example 4-29] it is over 7.00; for `Cc1ccc(N2c3cccc(C(=O)Nc4ccc(C(F)(F)F)c(F)c4)c3OC[C@@H]2CO)nc1` [Example 4-30] it is over 7.00. `Cc1ccc(N2c3cccc(C(=O)Nc4ccc(OC(F)(F)F)c(Cl)c4)c3OC[C@@H]2CO)nc1` [Example 4-31] gave a negative-log IC50 (pIC50) of over 7.00.

In turn, `Cc1ccc(N2c3cccc(C(=O)Nc4ccc(Cl)c(Cl)c4)c3OC[C@@H]2CO)nc1` [Example 4-32] gave a negative-log IC50 (pIC50) of over 7.00. The figure for `CC(C)COc1ccc(NC(=O)c2cccc3c2OC[C@H](CO)N3c2ncccc2Cl)cc1C(F)(F)F` [Example 4-33] is over 7.00; for `O=C(Nc1ccc(Cl)c(Cl)c1)c1cccc2c1OC[C@H](CO)N2c1ncccc1Cl` [Example 4-34] it is over 7.00; for `O=C(Nc1ccc(Cl)c(C(F)(F)F)c1)c1cccc2c1OC[C@H](CO)N2c1ncccc1Cl` [Example 4-35] it is over 7.00. The figure for `O=C(Nc1ccc(Br)c(F)c1)c1cccc2c1OC[C@H](CO)N2c1ncccc1Cl` [Example 4-36] is over 7.00; for `Cc1ccc(N2c3cccc(C(=O)Nc4ccc(Cl)c(C(F)(F)F)c4)c3OC[C@@H]2CO)nc1` [Example 4-37] it is over 7.00; for `Cc1ccc(N2c3cccc(C(=O)Nc4ccc(OC(C)C)c(C(F)(F)F)c4)c3OC[C@@H]2CO)nc1` [Example 4-38] it is over 7.00. With `O=C(Nc1ccc(N2CCOCC2)c(C(F)(F)F)c1)c1cccc2c1OC[C@H](CO)N2c1ncccc1Cl` [Example 4-39] the figure was over 7.00; with `Cc1ccc(N2c3cccc(C(=O)Nc4ccc(C(F)(F)F)cc4Cl)c3OC[C@@H]2CO)nc1` [Example 4-40], over 7.00; with `Cc1cccnc1N1c2cccc(C(=O)Nc3ccc(OC(F)(F)F)cc3)c2OC[C@@H]1CO` [Example 4-41], over 7.00. `Cc1cccnc1N1c2cccc(C(=O)Nc3ccc(C(F)(F)F)cc3)c2OC[C@@H]1CO` [Example 4-42] had a pIC50 of over 7.00. Consider `Cc1cccnc1N1c2cccc(C(=O)Nc3ccc(OC(C)(C)C)c(F)c3)c2OC[C@@H]1CO` [Example 4-43], for which the negative logarithm of the IC50 (pIC50) is over 7.00. As to `Cc1cccnc1N1c2cccc(C(=O)Nc3ccc(OCC(C)C)c(F)c3)c2OC[C@@H]1CO` [Example 4-44], the negative-log IC50 (pIC50) is over 7.00. The figure for `Cc1ccc(N2c3cccc(C(=O)Nc4ccc(OCC(C)C)c(C(F)(F)F)c4)c3OC[C@@H]2CO)nc1` [Example 4-45] is over 7.00; for `Cc1ccc(N2c3cccc(C(=O)Nc4ccc(OC(C)C)c(F)c4)c3OC[C@@H]2CO)nc1` [Example 4-46] it is over 7.00.

In turn, `Cc1ccc(N2c3cccc(C(=O)Nc4ccc(N5CCOCC5)c(F)c4)c3OC[C@@H]2CO)nc1` [Example 4-47] showed a pIC50 of over 7.00. The figure for `Cc1ccc(N2c3cccc(C(=O)Nc4ccc(Cl)cc4)c3OC[C@@H]2CO)nc1` [Example 4-48] is over 7.00; for `Cc1ccc(N2c3cccc(C(=O)Nc4ccc(OC(C)(C)C)c(F)c4)c3OC[C@@H]2CO)nc1` [Example 4-50] it is over 7.00. With `Cc1ccc(N2c3cccc(C(=O)Nc4ccc(Br)c(F)c4)c3OC[C@@H]2CO)nc1` [Example 4-51] the figure was over 7.00; with `O=C(Nc1ccc(OC(F)(F)F)cc1)c1cccc2c1OCC(CO)N2c1ncccc1Cl` (centres unmarked) [Example 4-52], over 7.00; with `O=C(Nc1ccc(C(F)(F)F)c(F)c1)c1cccc2c1OC[C@H](CO)N2c1ncccc1Cl` [Example 4-53], over 7.00. The figure for `Cc1ccc(N2c3cccc(C(=O)Nc4ccc(OCC(C)C)c(F)c4)c3OC[C@@H]2CO)nc1` [Example 4-54] is over 7.00; for `Cc1ccc(N2c3cccc(C(=O)Nc4ccc(F)c(C(F)(F)F)c4)c3OC[C@@H]2CO)nc1` [Example 4-55] it is over 7.00; for `CC(O)C1COc2c(C(=O)Nc3ccc(OC(F)(F)F)cc3)cccc2N1c1ncccc1Cl` (centres unmarked) [Example 4-56] it is over 7.00. Turning to `CC(C)(C)c1ccc(NC(=O)c2cccc3c2OCCN3c2cnccn2)cc1` [Example 5-1, N-(4-tert-butylphenyl)-4-(pyrazine-2-yl)-3,4-dihydro-2H-benzo[1,4]oxazine-8-carboxamide], the pIC50 is 6.00 to 7.00. The figure for `CCc1cnc(N2CCOc3c(C(=O)Nc4ccc(Cl)cc4)cccc32)nc1` [Example 5-2, N-(4-chlorophenyl)-4-(5-ethylpyrimidin-2-yl)-3,4-dihydro-2H-benzo[1,4]oxazine-8-carboxamide] is 6.00 to 7.00; for `O=C(Nc1ccc(C(F)(F)F)cc1)c1cccc2c1OCCN2c1ccc(Cl)nn1` [Example 5-4, 4-(6-chloropyridazine-3-yl)-N-(4-trifluoromethylphenyl)-3,4-dihydro-2H-benzo[1,4]oxazine-8-carboxamide] it is over 7.00.

With `Cc1csc(N2CCOc3c(C(=O)Nc4ccc(OC(F)(F)F)cc4)cccc32)n1` [Example 5-5, 4-(4-methylthiazol-2-yl)-N-(4-trifluoromethoxyphenyl)-3,4-dihydro-2H-benzo[1,4]oxazine-8-carboxamide], the pIC50 is 6.00 to 7.00. With `Cc1cnc(N2CCOc3c(C(=O)Nc4ccc(OC(F)(F)F)cc4)cccc32)s1` [Example 5-6, 4-(5-methylthiazol-2-yl)-N-(4-trifluoromethoxyphenyl)-3,4-dihydro-2H-benzo[1,4]oxazine-8-carboxamide] the figure was over 7.00. With `Cc1cnc(N2c3cccc(C(=O)Nc4ccc(OC(F)(F)F)cc4)c3OC[C@@H]2CO)s1` [Example 6-1, (S)-3-hydroxymethyl-4-(5-methylthiazol-2-yl)-N-(4-trifluoromethoxyphenyl)-3,4-dihydro-2H-benzo[1,4]oxazine-8-carboxamide] the figure was over 7.00; with `Cc1cnc(N2c3cccc(C(=O)Nc4ccc(C(F)(F)F)cc4)c3OC[C@@H]2CO)s1` [Example 6-2, (S)-3-hydroxymethyl-4-(5-methylthiazol-2-yl)-N-(4-trifluoromethylphenyl)-3,4-dihydro-2H-benzo[1,4]oxazine-8-carboxamide], over 7.00.

Regarding `Cc1cnc(N2c3cccc(C(=O)Nc4ccc(Cl)c(Cl)c4)c3OC[C@@H]2CO)s1` [Example 6-3, (S)-N-(3,4-dichlorophenyl)-3-hydroxymethyl-4-(5-methylthiazol-2-yl)-3,4-dihydro-2H-benzo[1,4]oxazine-8-carboxamide hydrochloride], the pIC50 was over 7.00.

Take `Cc1cnc(N2c3cccc(C(=O)Nc4ccc(OC(C)C)c(F)c4)c3OC[C@@H]2CO)s1` [Example 6-4]: the pIC50 is over 7.00. The figure for `Cc1cnc(N2c3cccc(C(=O)Nc4ccc(OC(C)(C)C)c(F)c4)c3OC[C@@H]2CO)s1` [Example 6-5] is over 7.00; for `Cc1cnc(N2c3cccc(C(=O)Nc4ccc(OCC(C)C)c(F)c4)c3OC[C@@H]2CO)s1` [Example 6-6] it is over 7.00; for `Cc1cnc(N2c3cccc(C(=O)Nc4ccc(Br)c(F)c4)c3OC[C@@H]2CO)s1` [Example 6-7] it is over 7.00. The figure for `Cc1cnc(N2c3cccc(C(=O)Nc4ccc(F)c(C(F)(F)F)c4)c3OC[C@@H]2CO)s1` [Example 6-8] is over 7.00.
